{
  "source": "patent US12295970B2",
  "about": "“Imidazoquinoline compounds and prodrugs thereof” (UNIVERSITY OF KANSAS, priority 2019, dated 2025)",
  "molecular_target": "T1, hTLR8 (Homo sapiens, UniProt Q9NR97)",
  "T1 construct": "host or cells: HEK293 (HEK-Blue hTLR8)",
  "T1 sequence (Q9NR97 27-1041)": "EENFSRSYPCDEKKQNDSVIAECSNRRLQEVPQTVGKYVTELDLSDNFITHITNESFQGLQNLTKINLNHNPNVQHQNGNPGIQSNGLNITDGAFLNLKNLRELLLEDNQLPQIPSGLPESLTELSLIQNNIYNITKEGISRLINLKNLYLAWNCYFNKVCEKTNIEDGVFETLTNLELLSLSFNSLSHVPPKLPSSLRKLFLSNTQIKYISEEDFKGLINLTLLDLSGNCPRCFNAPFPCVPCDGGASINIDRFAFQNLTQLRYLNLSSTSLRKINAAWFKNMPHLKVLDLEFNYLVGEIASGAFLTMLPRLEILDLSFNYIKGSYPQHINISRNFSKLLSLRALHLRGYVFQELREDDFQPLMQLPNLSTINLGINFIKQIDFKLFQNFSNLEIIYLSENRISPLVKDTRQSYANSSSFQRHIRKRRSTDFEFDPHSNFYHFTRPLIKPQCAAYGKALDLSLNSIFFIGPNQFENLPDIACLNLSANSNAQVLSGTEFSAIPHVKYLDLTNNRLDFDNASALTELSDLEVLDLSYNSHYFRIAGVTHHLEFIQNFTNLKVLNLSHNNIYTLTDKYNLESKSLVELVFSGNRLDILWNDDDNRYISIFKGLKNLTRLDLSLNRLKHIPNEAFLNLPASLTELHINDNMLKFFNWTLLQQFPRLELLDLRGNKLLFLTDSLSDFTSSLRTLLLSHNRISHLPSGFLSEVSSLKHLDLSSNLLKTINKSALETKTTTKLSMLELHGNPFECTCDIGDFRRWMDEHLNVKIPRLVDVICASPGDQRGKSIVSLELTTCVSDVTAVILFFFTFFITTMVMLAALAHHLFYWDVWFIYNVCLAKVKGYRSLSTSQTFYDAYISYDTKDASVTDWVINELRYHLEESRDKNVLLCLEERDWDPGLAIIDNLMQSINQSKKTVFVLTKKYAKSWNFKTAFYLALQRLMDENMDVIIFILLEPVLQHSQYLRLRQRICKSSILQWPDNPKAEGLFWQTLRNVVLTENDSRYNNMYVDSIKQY",
  "assay": "SEAP reporter assay for hTLR-8 activity (HEK-Blue hTLR8 cells)",
  "type": "cell-based",
  "description": "TLR activation induces NF-κB production and subsequent SEAP secretion, which is measured using HEK-Detection media (InvivoGen) containing a colorimetric substrate for SEAP (UV-Vis, 637 nm).\nThe experiments followed manufacturer protocol as follows: SEAP levels were measured via absorbance at 637 nm using HEK-Blue Detection cell culture medium (InvivoGen), which contains a SEAP-specific colorimetric substrate. Compound stock solutions were first diluted in sterile DMSO at a concentration of 10 mM. Lower concentrations were prepared by serial dilution of the initial 10 mM stock samples into sterile DMSO and these solutions (22 μL) were subsequently diluted into sterile H2O (198 μL) using a BioTek Precision XS pipetting system. HEK-Blue hTLR7, HEK-Blue hTLR8, Null 1−k, and Null 1 cell suspensions in sterile HEK-Blue Detection medium were prepared at a density of 220,000 cells per mL. Clear bottom, 96-well tissue culture treated plates (Corning) were seeded with hTLR7 and Null 1−k or hTLR8 and Null 1 cell suspensions (180 μL/well), after which 20 μL of the various sample concentrations in 10% v/v DMSO/H2O were added (20 μL) in quadruplicate wells to yield the desired testing concentration in 1% v/v DMSO cell suspension. Plates were incubated at 37° C. and 5% CO2 in the dark. Absorbance measurements were taken at 637 nm at 12 hours, 4 replicates per concentration point, per cell line (hTLR7, hTLR8, Null 1−k, Null 1). Three independent measurements on different days were performed for each analog.\nCorresponding well absorbance values for each concentration tested were averaged with respect to days tested, and the average relative NF-κB induction (UV-Vis, 637 nm) of the null cell lines (Null 1-k or Null 1) were subtracted from the respective average TLR expressing cell line (hTLR7 or hTLR8) absorbance averages. […] The three independent, normalized averages for each analog were then pooled, and the data was fit using the Hill-Slope model (GraphPad Prism v7.0) using the non-linear fit from the [Agonist] vs. response—Variable Slope (four parameters) with a hill slope constrained to less than 3.",
  "data": [
    {"smiles": "CCOCc1nc2c(N)nc3ccccc3c2n1CC(C)(C)O", "note": "[Compound 2, resiquimod, reference compound]", "values": [
      {"measurement": "agonist for TLR8 receptor (in words)", "result": "agonists"}
    ]}
  ]
}
